Experimental data: patent publication US4525475A, “Prevention of thrombolic disorder with imidazole derivatives and salts thereof” (priority 1979, dated 1985)
Read-outs that look alike come from different tables or passages of the source.

Assays:
TXA2 synthetase = target: T1, TXA2 synthetase (Equus caballus, UniProt A0A9L0T8T9); experiment: Inhibition of TXA2 synthetase: thromboxane (thromboxane B2) produced from labelled arachidonic acid by homogenised horse platelets; type: biochemical; details: horse platelet homogenate, 100 mM Tris buffer pH 7.4, 5 min preincubation at ambient temperature, 3 min at 37° C. with arachidonic acid
T1 construct: labelled arachidonic acid as substrate, thromboxane B2 measured by TLC
T1 sequence (A0A9L0T8T9 2-534): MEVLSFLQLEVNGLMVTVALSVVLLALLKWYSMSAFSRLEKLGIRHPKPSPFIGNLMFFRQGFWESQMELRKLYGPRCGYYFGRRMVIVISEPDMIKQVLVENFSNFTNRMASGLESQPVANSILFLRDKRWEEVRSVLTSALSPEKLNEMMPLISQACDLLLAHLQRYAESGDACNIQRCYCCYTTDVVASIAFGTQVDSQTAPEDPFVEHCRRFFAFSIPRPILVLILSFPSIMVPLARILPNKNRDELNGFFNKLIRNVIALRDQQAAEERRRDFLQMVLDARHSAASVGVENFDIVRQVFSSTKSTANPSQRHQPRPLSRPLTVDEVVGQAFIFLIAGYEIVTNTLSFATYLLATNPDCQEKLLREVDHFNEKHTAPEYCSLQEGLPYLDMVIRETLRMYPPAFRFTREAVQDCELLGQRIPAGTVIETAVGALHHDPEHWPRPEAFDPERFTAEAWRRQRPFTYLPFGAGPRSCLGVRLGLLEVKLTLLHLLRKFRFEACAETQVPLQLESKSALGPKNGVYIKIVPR
Description: (§1) Horse platelets were prepared from whole horse blood by differential centrifugation. Approximately 10^6 platelets were homogenised in 1 ml 100 mM Tris buffer pH 7.4. Various concentrations of active compound were added and the reaction sets incubated for 5 minutes at ambient temperature. To each tube was added 20 nM of arachidonic acid containing 10^6 disintegrations per minute (DPM) of labelled arachidonic acid and the tubes incubated for 3 minutes at 37° C. in a shaking water bath. After incubation the radioactive products were extracted from the acidified aqueous phase with ethyl acetate and after concentration resolved by thin layer chromatography on silica gel with chloroform/methanol/acetic acid/water (90:8:1:0.8) as a developing solvent. The amount of thromboxane produced was measured by scraping the radioactive zone corresponding to thromboxane B2 and estimating the radioactivity in a liquid scintillation counter.
The concentration of active compound to reduce the enzyme activity by 50% (ED50) was established.

PGE, PGF and PGD = experiment: Selectivity: amount of PGE, PGF and PGD produced, measured in a similar manner to the thromboxane test; type: biochemical, horse; parameters: key: 0: no selectivity; +: low selectivity; ++: medium selectivity; +++: high selectivity; ++++: exceptionally high selectivity; details: greater selectivity = more anti-aggregating prostaglandins produced
Description: as §1
The selectivity of the active compounds was measured in a similar manner to that described above and the amount of PGE, PGF and PGD produced was determined. The greater the selectivity, the more of the anti-aggregating prostaglandins are produced.
The ED50 and Selectivity results are shown in Table A in which 0 indicates no selectivity; +low selectivity; ++medium selectivity; +++high selectivity: ++++exceptionally high selectivity; ND not determined.

[1] = test system: enzymic conversion of the endoperoxides (PGG2 and PGH2) to thromboxane A2 by platelet microsomes; details: Moncada et al., Prostaglandins, 13/4, 611-618, 1977; cited from earlier work
serum cholesterol = details: U.K. Pat. No. 1 364 312; Biochem. Pharmacol., 24, 1902-1903, 1975; cited from earlier work
[2] = read-out: ED50 (concentration of active compound to reduce the enzyme activity by 50%) (converted)

| SMILES | IC50 (TXA2 synthetase; [2]) [µM] | Selectivity (PGE, PGF and PGD) | inhibition of the enzymic conversion of the endoperoxides to thromboxane A2 [1] | lowering serum cholesterol levels (serum cholesterol) | IC50 (TXA2 synthetase; read-out: ED50 (concentration of active compound to reduce the enzyme activity by 50%)) [µM] |
| --- | --- | --- | --- | --- | --- |
| Cn1ccnc1 [1-Methylimidazole, reference compound] | ≥ 2440 | ++ | some degree of inhibition | – | – |
| CCCCCCCCCCCCn1ccnc1 [1-n-dodecylimidazole] | – | – | – | capable of lowering serum cholesterol levels | – |
| CC1(C)C(=CCn2ccnc2)C2CCC1C2 (centres unmarked) [15 (b), 1-[2-(3,3-Dimethylbicyclo[2.2.1]heptan-2-ylidene)ethyl]imidazole] | < 69.3 | – | – | – | – |
| CC1(C)C2CC=C(CCn3ccnc3)C1C2 (centres unmarked) [Example 2, 1-[2-(6,6-Dimethylbicyclo[3.1.1]hept-2-en-2-yl)ethyl]imidazole] | 16.2 | +++ | – | – | – |
| c1cn(CC2COC3(CCCCC3)O2)cn1 (centres unmarked) [Example 10, 1-(1,4-Dioxaspiro[4.5]decan-2-ylmethyl)imidazole] | > 225 | – | – | – | – |
| c1cn(CC2CN3CCC2CC3)cn1 (centres unmarked) [Example 12, 1-(1-Azabicyclo[2.2.2]octan-3-ylmethyl)imidazole] | 157 | ++ | – | – | – |
| C1=CC2CC1CC2CC(C1CC2C=CC1C2)n1ccnc1 (centres unmarked) [Example 13, 1-{1,2-[Bis-(bicyclo[2.2.1]hept-5-en-2-yl)]ethyl}imidazole] | 89.2 | ++ | – | – | – |
| c1c[nH]cn1 [Imidazole] | – | – | some degree of inhibition | – | ≥ 7340 |

Further lines, with some results ahead:

| IC50 (TXA2 synthetase; [2]) [µM] | SMILES | Selectivity (PGE, PGF and PGD) | inhibition of the enzymic conversion of the endoperoxides to thromboxane A2 [1] | lowering serum cholesterol levels (serum cholesterol) | IC50 (TXA2 synthetase; read-out: ED50 (concentration of active compound to reduce the enzyme activity by 50%)) [µM] |
| --- | --- | --- | --- | --- | --- |
| < 57.4 | c1cn(CC2C3CC4C(C3)C24)cn1 (centres unmarked) [15 (c), 1-(Tricyclo[2.2.1.0^3,5]heptan-2-ylmethyl)imidazole] | +++ | – | – | – |
| 19.7 | CC1(C)C2CCC(CCn3ccnc3)C1C2 (centres unmarked) [Example 1, 1-[2-(6,6-dimethylbicyclo[3.1.1]heptan-2-yl)ethyl]imidazole] | +++ | – | – | – |
| 57.4 | C1=CC2CC1CC2Cn1ccnc1 (centres unmarked) [Example 3, 1-(Bicyclo[2.2.1]hept-5-en-2-ylmethyl)imidazole] | +++ | – | – | – |
| 28.4 | c1cn(CC2CC3CCC2C3)cn1 (centres unmarked) [Example 4, 1-(Bicyclo[2.2.1]heptan-2-ylmethyl)imidazole] | +++ | – | – | – |
| 74.1 | CC1(C)C2CC=C(Cn3ccnc3)C1C2 (centres unmarked) [Example 7, 1-(6,6-Dimethylbicyclo[3.1.1]hept-2-en-2-ylmethyl)imidazole] | +++ | – | – | – |
| 24.5 | CC1(C)C2CCC(Cn3ccnc3)C1C2 (centres unmarked) [Example 8, 1-(6,6-Dimethylbicyclo[3.1.1]heptan-2-ylmethyl)imidazole] | +++ | – | – | – |
| 65.1 | c1cn(CCC23CC4CC(CC(C4)C2)C3)cn1 [Example 9, 1-[2-(Adamantan-1-yl)ethyl]imidazole] | ++++ | – | – | – |
| 290 | c1cn(C2CC3CCC2C3)cn1 (centres unmarked) [Example 11, 1-(Bicyclo[2.2.1]heptan-2-yl)imidazole] | – | – | – | – |
